Data reported in ChEMBL document CHEMBL1140240, “Glutamic acid analogues as potent dipeptidyl peptidase IV and 8 inhibitors” (Bioorg Med Chem Lett, 2005).

Experiments:
Dipeptidyl peptidase 4 = Dipeptidyl peptidase 4 (Homo sapiens, UniProt P27487)
Dipeptidyl peptidase 2 = Dipeptidyl peptidase 2 (Homo sapiens, UniProt Q9UHL4); experiment: Inhibitory concentration against DPP-II [Quiescent cell proline dipeptidase] or DPP-VII

Sequence of Dipeptidyl peptidase 4 (P27487 whole entry): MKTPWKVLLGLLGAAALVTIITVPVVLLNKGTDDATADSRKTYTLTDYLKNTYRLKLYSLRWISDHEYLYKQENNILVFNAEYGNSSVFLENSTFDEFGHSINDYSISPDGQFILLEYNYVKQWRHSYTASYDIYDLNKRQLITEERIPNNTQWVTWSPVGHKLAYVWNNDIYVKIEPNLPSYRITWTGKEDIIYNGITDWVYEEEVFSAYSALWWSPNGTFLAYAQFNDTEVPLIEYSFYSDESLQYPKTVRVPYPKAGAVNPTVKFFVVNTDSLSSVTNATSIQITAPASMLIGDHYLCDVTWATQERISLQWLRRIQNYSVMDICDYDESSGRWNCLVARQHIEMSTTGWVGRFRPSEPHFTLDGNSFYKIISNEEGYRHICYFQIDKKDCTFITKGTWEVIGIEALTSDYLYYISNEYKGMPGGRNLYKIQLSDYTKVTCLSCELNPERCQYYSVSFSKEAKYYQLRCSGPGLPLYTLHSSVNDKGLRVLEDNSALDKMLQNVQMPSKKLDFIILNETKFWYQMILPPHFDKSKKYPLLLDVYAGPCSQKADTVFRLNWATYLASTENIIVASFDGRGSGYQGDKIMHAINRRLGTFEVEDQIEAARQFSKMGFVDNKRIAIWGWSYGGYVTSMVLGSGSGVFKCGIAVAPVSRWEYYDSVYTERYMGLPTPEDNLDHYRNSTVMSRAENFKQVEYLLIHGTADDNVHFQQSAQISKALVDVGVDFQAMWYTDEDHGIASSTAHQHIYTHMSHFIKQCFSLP

| Structure (SMILES) | IC50 (Dipeptidyl peptidase 4) [nM] | IC50 (Dipeptidyl peptidase 2) [nM] |
| --- | --- | --- |
| N#C[C@@H]1CCCN1C(=O)[C@@H](N)CC(=O)N1CCc2ccccc2C1 | 99 | – |
| CC(C)(C)C(NC(=O)C[C@H](N)C(=O)N1CCC[C@H]1C#N)c1ccccc1 (stereo not given in full) | 251 | – |
| CCC(NC(=O)C[C@H](N)C(=O)N1CCC[C@H]1C#N)c1ccccc1 (stereo not given in full) | 140 | – |
| N#C[C@@H]1CCCN1C(=O)[C@@H](N)CC(=O)N1CCN(C(=O)c2ccccc2)CC1 | 123 | – |
| COc1cc2c(cc1OC)C(Cc1ccccc1)N(C(=O)C[C@H](N)C(=O)N1CCC[C@H]1C#N)CC2 (stereo not given in full) | 97 | – |
| CC(C)C(NC(=O)C[C@H](N)C(=O)N1CCC[C@H]1C#N)c1ccccc1 (stereo not given in full) | 212 | – |
| COc1ccc(CCNC(=O)C[C@H](N)C(=O)N2CCC[C@H]2C#N)cc1OC | 116 | – |
| COc1ccc2c(c1)C(C(C)(C)C)N(C(=O)C[C@H](N)C(=O)N1CCC[C@H]1C#N)CC2 (stereo not given in full) | 195 | – |
| COc1cc2c(cc1OC)C(C(C)C)N(C(=O)C[C@H](N)C(=O)N1CCC[C@H]1C#N)CC2 (stereo not given in full) | 47 | – |
| COCC(Cc1ccccc1)NC(=O)C[C@H](N)C(=O)N1CCC[C@H]1C#N (stereo not given in full) | 182 | – |
| COc1cc2c(cc1OC)C(CCO)N(C(=O)C[C@H](N)C(=O)N1CCC[C@H]1C#N)CC2 (stereo not given in full) | 45 | – |
| CC(C)C(Cc1ccccc1)NC(=O)C[C@H](N)C(=O)N1CCC[C@H]1C#N (stereo not given in full) | 305 | – |
| COc1ccc2c(c1)CCN(C(=O)C[C@H](N)C(=O)N1CCC[C@H]1C#N)C2C(C)(C)C (stereo not given in full) | 72 | – |
| N#C[C@@H]1CCCN1C(=O)[C@@H](N)CC(=O)NC(Cc1ccccc1)c1ccccc1 (stereo not given in full) | 252 | – |
| N#C[C@@H]1CCCN1C(=O)[C@@H](N)CC(=O)N1CCN(C(c2ccc(F)cc2)c2ccc(F)cc2)CC1 | 227 | – |
| N#Cc1ccc[n+](N2CCN(C(=O)C[C@H](N)C(=O)N3CCC[C@H]3C#N)CC2)c1 | 87 | – |
| N#C[C@@H]1CCCN1C(=O)[C@@H](N)CC(=O)NCc1ccccc1 | 238 | – |
| COc1cc2c(cc1OC)CN(C(=O)C[C@H](N)C(=O)N1CCC[C@H]1C#N)CC2 | 63 | 31300 |
| COc1cc2c(cc1OC)C(C(C)(C)C)N(C(=O)C[C@H](N)C(=O)N1CCC[C@H]1C#N)CC2 (stereo not given in full) | 73 | – |
